Measurements taken from PMC8689225, “Cardiac ryanodine receptor N-terminal region biosensors identify novel inhibitors via FRET-based high-throughput screening” (The Journal of Biological Chemistry, 2021).
Read-outs that look alike come from different tables or passages of the source.

Columns and labels:
[1] = target: T1, RyR1 (Sus scrofa, UniProt P16960); experiment: [3H]ryanodine binding to skeletal SR (HSR) vesicles; type: biochemical, pig; conditions: for EC50: Table S4, read-out: EC50, [3H]ryanodine binding, skeletal HSR
T1 construct: from tissue; host or cells: porcine longissimus dorsi muscle, heavy SR vesicles
Protocol: Crude sarcoplasmic reticulum membrane vesicles were isolated from porcine longissimus dorsi muscle and porcine cardiac left ventricle tissue by differential centrifugation of homogenized tissue, as established previously ([65]). Skeletal heavy SR (HSR) vesicles, which are enriched with RyR1, were isolated by fractionation of crude skeletal SR vesicles using a discontinuous sucrose gradient, in accordance with our published work ([65]). All vesicles were flash-frozen and stored at −80 °C.
In 96-well plates, skeletal SR membranes (HSR, 1 mg/ml) and cardiac SR membranes (CSR, 3 mg/ml) were preincubated with 1% DMSO or hit compound for 30 min at 22 °C in a solution containing 150 mM KCl, 5 mM GSH, 1 μg/ml Aprotinin/Leupeptin, 1 mM EGTA, and 65 μM or 1.02 mM CaCl2 (as determined by MaxChelator to yield 30 nM or 30 μM of free Ca^2+, respectively), 0.1 mg/ml of BSA, and 20 mM K-PIPES (pH 7.0). Nonspecific [^3H]ryanodine binding to SR was assessed by addition of 40 μM nonradioactively labeled ryanodine. Maximal [^3H]ryanodine binding was assessed by addition of 5 mM adenylyl-imidodiphosphate (AMP-PNP), and in the case of CSR, 20 mM caffeine was added. These control samples were each loaded over four wells per plate. Binding of [^3H]ryanodine (7.5 and 10 nM for CSR and HSR, respectively) was determined following a 3 h incubation at 37 °C and filtration through grade GF/B glass microfiber filters (Brandel Inc) using a Brandel Harvester. In 4 ml of Ecolite scintillation cocktail (MP biomedicals), [^3H]ryanodine retained on the filter was counted using a Beckman LS6000 scintillation counter.

[2] = target: T2, mouse RyR2 NTR (Mus musculus, UniProt E9Q401, K30C/K441C, form not given); experiment: FLT-FRET dose-response with AC-NTR biosensor; type: binding; conditions: AC-NTR biosensor
T2 sequence (E9Q401 1-547 K30C/K441C): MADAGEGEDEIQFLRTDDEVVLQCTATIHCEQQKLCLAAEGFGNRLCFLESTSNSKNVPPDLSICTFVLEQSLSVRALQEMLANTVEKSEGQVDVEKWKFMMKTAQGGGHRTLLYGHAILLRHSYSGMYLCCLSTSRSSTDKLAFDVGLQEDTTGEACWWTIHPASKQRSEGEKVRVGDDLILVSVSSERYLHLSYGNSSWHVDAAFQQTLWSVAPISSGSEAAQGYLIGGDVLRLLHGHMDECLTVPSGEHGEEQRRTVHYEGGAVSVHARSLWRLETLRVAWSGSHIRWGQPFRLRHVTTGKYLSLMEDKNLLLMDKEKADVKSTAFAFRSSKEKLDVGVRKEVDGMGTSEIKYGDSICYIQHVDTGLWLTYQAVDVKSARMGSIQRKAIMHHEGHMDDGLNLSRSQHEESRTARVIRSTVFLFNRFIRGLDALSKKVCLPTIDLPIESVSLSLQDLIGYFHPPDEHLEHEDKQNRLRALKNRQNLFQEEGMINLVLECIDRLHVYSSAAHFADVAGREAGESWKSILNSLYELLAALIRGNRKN
From the text: The NTR of mouse RyR2 (residues 1–547) was cloned and expressed as previously described ([27]). The DNA construct contains a 6×His tag, a maltose-binding protein (MBP) tag, and a tobacco etch virus (TEV) protease cleavage site. The seven native solvent-exposed cysteine residues were substituted with alanine residues, and two constructs were engineered with Cys substitutions at surface residues R383 and K441 (in the B and C domains, respectively; termed BC) and at K30 and K441 (in the A and C domains, respectively; termed AC) for labeling with spectroscopic probes such as appropriate donor–acceptor fluorophores for FRET (for the purpose of this report, these are considered the WT forms of AC and BC). A variant of the BC construct corresponding to the disease-associated mutant (R420Q) was also prepared. For this site-directed mutagenesis work, we used the QuikChange (Stratagene) and Phusion High-Fidelity PCR (Thermo Fisher Scientific) kits. The WT-NTR, R420Q-NTR, AC- and BC-NTR, AC- and BC-R420Q-NTR protein constructs were expressed in Escherichia coli Rosetta (DE3) pLacI cells at 18 °C and purified with a protocol adapted from previously published work ([26]). An amylose column was first applied after the cells were lysed by ultrasonication. The protein in the elution was then cleaved using TEV protease. The cleaved crude protein went through the second amylose column to separate from the MBP and then followed by a Superdex S-200 size exclusion column in a buffer consisting of 250 mM KCl, 10 mM HEPES, and 14 mM β-mercaptoethanol (pH 7.4). The NTR protein (3 μM) was then incubated in 10 mM HEPES, 250 mM KCl (pH 7.4, 2 h, 21 °C) with the fluorescent probes Alexa Fluor 488 maleimide (AF488, donor; 40 μM) and Alexa Fluor 568 maleimide (AF568, acceptor; 60 μM). The maleimide of the dye reacts with the thiols the Cys residues engineered into NTR, forming a covalently labeled protein. The Alexa dyes were added last to the reaction mixture, from 10 mM DMSO stock solutions. This reaction is not selective to one site (K30C or K441C), and we anticipate that there is a mixed population with K30C or K441C labeled with either AF488 (donor) or AF568 (acceptor). We focused on maximizing the fraction containing donor–acceptor pairs, thus maximizing FRET efficiency and the precision for detecting a change in structure as an indication that a compound interacts with the NTR biosensor. The labeling efficiency was determined by comparing the molar concentration of the bound dye, determined from UV-Vis absorbance, to the protein concentration, determined from gel densitometry. Essentially complete labeling was confirmed from electrospray ionization mass spectrometry. CD spectra of the WT-NTR and mutant R420Q-NTR constructs before and after labeling were recorded using a JASCO J-815 CD spectrometer (JASCO), confirming similar folding (Fig. S1).
The 1536-well assay plates were prepared as described in our previous reports ([21]). The LOPAC (Sigma-Aldrich) collection received in 96-well plates was reformatted into 384-well polypropylene intermediate plates (Greiner Bio-One) using a multichannel liquid handler, BioMek FX (Beckman Coulter), then transferred to 384-well Echo Qualified source plates (Labcyte Inc). Assay plates were prepared as previously described ([20]). On screening days, these plates were thawed out and were loaded with labeled NTR (5 μl, 20 nM final concentration) using a Multidrop Combi automated sample dispenser.
HTS measurements were conducted in a prototype top-read FLT plate reader (FLT-PR, Fluorescence Innovations, Inc), which reads each 1536-well plate in ∼3 min ([63], [64]). AF488 donor fluorescence was excited with a 473 nm microchip laser from Concepts Research Corporation, and the emission signal was split into two channels by a dichroic mirror and acquired with 517 ± 10 nm (channel 1) and 535 ± 7 nm band-pass filters (channel 2) (Semrock). […]

T1 sequence (P16960 whole entry): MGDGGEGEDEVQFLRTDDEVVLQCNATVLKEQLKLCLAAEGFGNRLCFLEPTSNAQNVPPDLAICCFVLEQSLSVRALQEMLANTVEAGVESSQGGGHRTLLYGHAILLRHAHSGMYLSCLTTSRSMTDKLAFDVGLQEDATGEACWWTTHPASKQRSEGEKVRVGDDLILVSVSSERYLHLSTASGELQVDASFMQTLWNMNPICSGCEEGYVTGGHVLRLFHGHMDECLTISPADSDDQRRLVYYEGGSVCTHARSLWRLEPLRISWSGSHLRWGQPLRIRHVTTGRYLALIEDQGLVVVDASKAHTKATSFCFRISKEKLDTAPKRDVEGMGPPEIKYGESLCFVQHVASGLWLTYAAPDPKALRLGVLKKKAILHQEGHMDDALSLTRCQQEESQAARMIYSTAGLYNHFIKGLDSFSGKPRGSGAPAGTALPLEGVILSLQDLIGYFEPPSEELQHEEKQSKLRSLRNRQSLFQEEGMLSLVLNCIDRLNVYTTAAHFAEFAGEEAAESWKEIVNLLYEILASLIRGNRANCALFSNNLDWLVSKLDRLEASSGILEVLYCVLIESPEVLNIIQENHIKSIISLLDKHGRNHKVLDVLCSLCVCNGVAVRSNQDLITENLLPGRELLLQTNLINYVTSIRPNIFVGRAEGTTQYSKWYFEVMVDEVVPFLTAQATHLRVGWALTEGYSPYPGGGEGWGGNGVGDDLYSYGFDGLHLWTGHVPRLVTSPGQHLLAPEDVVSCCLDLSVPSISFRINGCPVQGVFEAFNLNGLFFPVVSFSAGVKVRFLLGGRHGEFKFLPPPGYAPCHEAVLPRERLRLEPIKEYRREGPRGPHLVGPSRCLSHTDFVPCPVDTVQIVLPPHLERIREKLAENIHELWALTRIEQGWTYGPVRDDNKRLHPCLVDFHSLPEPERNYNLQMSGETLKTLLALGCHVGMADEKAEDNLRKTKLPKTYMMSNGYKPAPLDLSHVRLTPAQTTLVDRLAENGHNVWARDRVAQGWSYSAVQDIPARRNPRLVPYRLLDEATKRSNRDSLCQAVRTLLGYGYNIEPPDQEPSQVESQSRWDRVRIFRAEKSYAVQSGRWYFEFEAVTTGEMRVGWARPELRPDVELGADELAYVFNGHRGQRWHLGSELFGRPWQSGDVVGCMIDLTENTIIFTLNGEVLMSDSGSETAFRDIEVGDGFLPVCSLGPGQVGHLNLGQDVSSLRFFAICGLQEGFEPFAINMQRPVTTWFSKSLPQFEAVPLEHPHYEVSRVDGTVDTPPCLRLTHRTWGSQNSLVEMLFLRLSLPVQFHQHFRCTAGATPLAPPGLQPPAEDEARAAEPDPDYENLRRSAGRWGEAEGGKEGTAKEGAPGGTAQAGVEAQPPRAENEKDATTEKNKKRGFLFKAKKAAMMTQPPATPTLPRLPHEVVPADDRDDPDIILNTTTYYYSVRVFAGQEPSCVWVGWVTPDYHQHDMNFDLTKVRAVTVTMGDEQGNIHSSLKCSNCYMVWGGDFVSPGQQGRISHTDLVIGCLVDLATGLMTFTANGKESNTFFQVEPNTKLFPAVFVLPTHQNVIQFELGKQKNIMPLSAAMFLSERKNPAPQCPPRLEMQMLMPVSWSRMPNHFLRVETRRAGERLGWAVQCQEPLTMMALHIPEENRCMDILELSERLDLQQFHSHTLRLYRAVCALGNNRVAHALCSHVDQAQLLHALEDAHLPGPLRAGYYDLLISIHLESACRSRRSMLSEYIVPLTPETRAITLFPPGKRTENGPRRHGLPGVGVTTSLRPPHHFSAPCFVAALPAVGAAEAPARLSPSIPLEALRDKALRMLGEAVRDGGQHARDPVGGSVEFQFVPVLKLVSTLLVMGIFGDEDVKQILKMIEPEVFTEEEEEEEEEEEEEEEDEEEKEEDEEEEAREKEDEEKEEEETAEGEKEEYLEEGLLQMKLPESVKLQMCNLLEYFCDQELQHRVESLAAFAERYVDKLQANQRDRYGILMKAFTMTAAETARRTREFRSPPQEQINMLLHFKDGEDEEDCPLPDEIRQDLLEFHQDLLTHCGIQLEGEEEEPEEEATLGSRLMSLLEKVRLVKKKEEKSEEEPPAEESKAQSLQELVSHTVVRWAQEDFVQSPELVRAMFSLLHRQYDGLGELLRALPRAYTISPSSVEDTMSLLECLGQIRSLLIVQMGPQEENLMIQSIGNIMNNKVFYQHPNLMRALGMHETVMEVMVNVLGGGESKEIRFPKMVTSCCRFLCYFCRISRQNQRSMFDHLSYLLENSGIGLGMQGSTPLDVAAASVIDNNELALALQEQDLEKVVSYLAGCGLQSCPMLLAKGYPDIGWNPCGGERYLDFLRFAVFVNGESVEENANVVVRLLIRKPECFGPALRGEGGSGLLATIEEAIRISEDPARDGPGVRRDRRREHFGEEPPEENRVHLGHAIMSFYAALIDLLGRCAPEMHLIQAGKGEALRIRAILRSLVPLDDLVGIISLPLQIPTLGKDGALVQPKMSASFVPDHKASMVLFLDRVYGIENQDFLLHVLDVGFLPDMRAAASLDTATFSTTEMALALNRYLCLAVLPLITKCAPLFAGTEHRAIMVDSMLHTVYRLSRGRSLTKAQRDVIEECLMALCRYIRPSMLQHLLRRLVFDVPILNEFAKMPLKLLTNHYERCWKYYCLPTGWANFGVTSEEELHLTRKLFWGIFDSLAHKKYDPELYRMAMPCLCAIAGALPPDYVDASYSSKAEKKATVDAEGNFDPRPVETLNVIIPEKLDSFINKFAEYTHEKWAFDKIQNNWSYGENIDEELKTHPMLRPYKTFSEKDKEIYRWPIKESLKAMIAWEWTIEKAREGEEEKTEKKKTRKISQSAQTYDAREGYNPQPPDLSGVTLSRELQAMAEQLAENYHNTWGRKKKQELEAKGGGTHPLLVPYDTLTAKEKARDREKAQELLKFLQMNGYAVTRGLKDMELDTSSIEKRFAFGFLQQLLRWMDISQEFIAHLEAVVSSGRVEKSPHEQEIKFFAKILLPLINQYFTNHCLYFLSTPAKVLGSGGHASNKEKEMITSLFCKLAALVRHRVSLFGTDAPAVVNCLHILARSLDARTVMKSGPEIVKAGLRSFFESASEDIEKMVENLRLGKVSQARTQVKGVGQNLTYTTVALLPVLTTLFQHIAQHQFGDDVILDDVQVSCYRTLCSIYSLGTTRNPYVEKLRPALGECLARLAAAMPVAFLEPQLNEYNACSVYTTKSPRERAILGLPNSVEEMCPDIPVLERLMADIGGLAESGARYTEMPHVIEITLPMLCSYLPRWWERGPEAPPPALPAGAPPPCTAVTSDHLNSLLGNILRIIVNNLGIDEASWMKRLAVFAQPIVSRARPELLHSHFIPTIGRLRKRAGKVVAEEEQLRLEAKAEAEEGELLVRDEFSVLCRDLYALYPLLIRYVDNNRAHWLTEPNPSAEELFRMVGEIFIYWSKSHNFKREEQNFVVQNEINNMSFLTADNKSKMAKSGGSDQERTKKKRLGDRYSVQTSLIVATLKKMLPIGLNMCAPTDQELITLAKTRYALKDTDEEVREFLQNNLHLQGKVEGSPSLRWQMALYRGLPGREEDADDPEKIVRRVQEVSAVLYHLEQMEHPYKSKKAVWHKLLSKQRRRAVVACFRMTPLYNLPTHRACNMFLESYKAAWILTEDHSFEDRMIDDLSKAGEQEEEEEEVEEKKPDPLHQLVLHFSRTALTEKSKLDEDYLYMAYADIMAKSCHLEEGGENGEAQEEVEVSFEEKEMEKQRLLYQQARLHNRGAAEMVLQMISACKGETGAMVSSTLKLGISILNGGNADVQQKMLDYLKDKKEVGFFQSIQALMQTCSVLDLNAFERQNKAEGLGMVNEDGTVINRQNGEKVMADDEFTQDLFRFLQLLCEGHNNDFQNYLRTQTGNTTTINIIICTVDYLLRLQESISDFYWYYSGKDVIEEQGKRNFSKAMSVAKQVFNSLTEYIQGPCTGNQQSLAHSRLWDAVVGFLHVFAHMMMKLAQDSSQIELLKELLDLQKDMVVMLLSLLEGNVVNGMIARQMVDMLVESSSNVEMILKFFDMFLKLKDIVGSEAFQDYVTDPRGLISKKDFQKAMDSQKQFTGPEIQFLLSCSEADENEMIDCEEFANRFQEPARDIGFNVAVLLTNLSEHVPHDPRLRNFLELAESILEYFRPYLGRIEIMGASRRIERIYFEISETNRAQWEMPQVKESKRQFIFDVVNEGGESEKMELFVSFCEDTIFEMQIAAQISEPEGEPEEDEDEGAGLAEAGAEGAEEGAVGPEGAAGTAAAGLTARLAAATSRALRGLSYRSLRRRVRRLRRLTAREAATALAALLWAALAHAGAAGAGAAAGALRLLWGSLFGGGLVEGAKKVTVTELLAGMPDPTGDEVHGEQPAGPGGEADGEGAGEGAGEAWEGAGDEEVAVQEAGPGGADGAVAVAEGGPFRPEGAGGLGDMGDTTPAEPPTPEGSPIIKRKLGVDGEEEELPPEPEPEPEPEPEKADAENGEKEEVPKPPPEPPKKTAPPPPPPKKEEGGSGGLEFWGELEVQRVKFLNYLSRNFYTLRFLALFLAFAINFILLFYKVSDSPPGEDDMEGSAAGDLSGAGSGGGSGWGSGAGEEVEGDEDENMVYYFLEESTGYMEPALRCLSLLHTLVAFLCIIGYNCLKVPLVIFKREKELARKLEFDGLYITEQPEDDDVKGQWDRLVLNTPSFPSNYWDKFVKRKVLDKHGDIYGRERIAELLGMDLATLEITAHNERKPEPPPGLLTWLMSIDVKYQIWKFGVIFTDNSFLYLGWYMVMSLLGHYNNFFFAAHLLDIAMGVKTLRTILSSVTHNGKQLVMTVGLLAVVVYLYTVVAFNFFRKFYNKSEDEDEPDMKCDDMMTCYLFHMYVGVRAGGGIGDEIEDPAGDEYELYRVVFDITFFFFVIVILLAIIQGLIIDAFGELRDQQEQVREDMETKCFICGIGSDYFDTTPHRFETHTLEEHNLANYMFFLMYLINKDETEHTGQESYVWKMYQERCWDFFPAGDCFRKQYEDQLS

## CC(=O)O[C@H]1C[C@@]2(C)[C@@H](C[C@@H](O)[C@H]3[C@@]4(C)CC[C@@H](O)[C@@H](C)[C@@H]4CC[C@@]32C)/C1=C(\CCC=C(C)C)C(=O)O [FA, (2Z)-2-[(3R,4S,5S,8S,9S,10S,11R,13R,14S,16S)-16-acetyloxy-3,11-dihydroxy-4,8,10,14-tetramethyl-2,3,4,5,6,7,9,11,12,13,15,16-dodecahydro-1H-cyclopenta[a]phenanthren-17-ylidene]-6-methylhept-5-enoic acid]
[1]; [Ca2+] 30 nM
  EC50: 0.01 µM
[1]; [Ca2+], 30 µM
  EC50: 21.1 µM
[1]; skeletal SR, 30 nM Ca2+
  maximum inhibitory effect on [3H]ryanodine binding: ~50%
[1]; skeletal SR, 30 μM Ca2+
  effect on [3H]ryanodine binding to RyR1: strongly increased
[2]; 0 to 100 μM, CPNQ/corbadrine decrease FLT, FA/tacrolimus increase FLT
  ΔFLT: ≈ 0.1 ns
[2]; read-out: EC50, FRET dose-response, Hill fit, Table S4
  EC50: 3.8 µM
